In assay [1] the test system is SlCAT2. Kind of assay: [3H]Arg uptake in proteoliposomes reconstituted with recombinant SlCAT2. The format is biochemical, S. lycopersicum. Conditions: for effect of intraliposomal cations on [3H]Arg uptake: cation in internal compartment at about vacuolar concentration, K+ and Na+ versus no osmolytes, extent equal to isoosmolar sucrose (osmotic effect); for inhibition of [3H]Arg uptake by external monovalent cations / inhibition of [3H]Arg uptake by external divalent cations: extraliposomal cation at about cytosolic concentration; for inhibition of [3H]Arg uptake by external monovalent cations: with respect to 40 mM sucrose used as control of osmolality; for inhibition of [3H]Arg uptake by external divalent cations: with respect to sucrose (1.2 mM) used as control of osmolality; for effect of external K+ salts on [3H]Arg uptake: salt in extraliposomal compartment, KCl compared to K-gluconate. The protocol:
The desalted SlCAT2 was reconstituted by removing the detergent from mixed micelles containing detergent, protein, and phospholipids by incubation with Amberlite XAD-4 in a batch-wise procedure, as previously described. The composition of the initial mixture used for reconstitution (except when differently indicated) was 400 µL of the purified protein (6 µg protein in 0.1% DDM), 80 µL of 10 % TX-100, 120 µL of 10% egg yolk phospholipids in the form of sonicated liposomes prepared as previously described, 15 mM ATP, and 10 mM Tris Hepes pH 7.5 (except where differently indicated) in a final volume of 700 µL. After vortexing, this mixture was incubated with 0.5 g Amberlite XAD-4 under rotatory stirring (1200 rpm) at 23 °C for 40 min in a batchwise procedure as previously pointed out.
Five-hundred-and-fifty microliters of proteoliposomes were passed through a Sephadex G-75 column (0.7 cm diameter × 15 cm height) preequilibrated with 10 mM Tris Hepes pH 7.5. From these columns, 550 µL of proteoliposomes were collected and divided into aliquots (samples) of 100 µL. Transport was started by adding 100 µM of [^3H]Arg to the proteoliposome samples. The pH gradient experiments were performed reconstituting protein in liposome with 10 mM Tris Hepes pH 5.5. After incubation with Amberlite XAD 4 resin, 550 µL of proteoliposomes were passed through a Sephadex G-75 column preequilibrated with 0.5 mM Tris Hepes pH 5.5.
The changes in external/internal osmolality were performed by adding in the extraliposomal/intraliposomal compartment appropriate concentrations of sucrose as indicated in the figure legend.
Transport reaction was stopped by adding 5 mM Pyridoxal Phosphate (PLP); according to the stop inhibitor method, the same inhibitor was added at time zero to control samples (blank). The initial rate was measured in 10 min, i.e., in the linear range of time courses as previously described. The PLP insensitive radioactivity associated with the control samples (blank) was less than 30% with respect to the PLP-sensitive arginine transport.
The experimental values were corrected by subtracting the respective controls. Specific activity was calculated and expressed as nmol/mg at a given time of measurement or as nmol/(mg × min) in the case of initial rate measurement. For calculation of initial rate, transport was measured in 10 min, i.e., within the initial linear part of the uptake. Grafit 5.0.13 software (Erithacus Software, West Sussex, UK) was used to derive IC50 values in inhibition assays and to measure transport rate by first-order rate equation and by a single exponential decay with offset.

In assay [2] the test system is SlCAT2. Kind of assay: [3H]Arg efflux from preloaded proteoliposomes reconstituted with SlCAT2. Conditions: 0.45 mM Mg2+ in the extraliposomal compartment; proteoliposomes preloaded with 100 µM [3H]Arg. The format is biochemical, S. lycopersicum. The protocol:
Figure 9 Efflux from proteoliposomes reconstituted with SlCAT2. SlCAT2 was purified and reconstituted in proteoliposomes as described in Section 4.4. Arginine efflux was measured at the indicated time, as described in Section 4.5. Internal residual radioactivity was measured as percent with respect to control (time 0), in the absence (open circle) or in the presence (closed circle) of 0.45 mM Mg^2+ in the extraliposomal compartment. Data are plotted using the single exponential equation with offset as described in Section 4.5. Results are the means ± SD from three experiments.
For efflux measurements, proteoliposomes containing 15 mM ATP were preloaded by incubation with 100 µM [^3H]Arg (1 µCi/mL) for 90 min [64]. In both uptake and efflux, transport was stopped by passing 100 µL of each sample through a Sephadex G-75 column (0.6 cm diameter × 8 cm height) in order to separate the external from the internal radioactivity. Samples were eluted with 1 mL 50 mM NaCl and collected in 4 mL of scintillation mixture, vortexed and counted.
The experimental values were corrected by subtracting the respective controls. Specific activity was calculated and expressed as nmol/mg at a given time of measurement or as nmol/(mg × min) in the case of initial rate measurement. For calculation of initial rate, transport was measured in 10 min, i.e., within the initial linear part of the uptake. […]

[3] abbreviates: cation in extraliposomal compartment (NaCl, K-gluconate, NH4Cl, MgCl2), 100 μM [3H]Arg, 20 min, proteoliposomes containing 200 mM sucrose and 15 mM ATP, pH 7.5, read-out: IC50 for inhibition of [3H]Arg uptake by external cations.

The values below come from paper PMC6413183, “Regulatory Aspects of the Vacuolar CAT2 Arginine Transporter of S. lycopersicum: Role of Osmotic Pressure and Cations” (International Journal of Molecular Sciences, 2019).

Molecules are shown by their SMILES. Where two headings read alike, the source gives them in different places.

One may read the IC50 as the concentration that inhibits the measured activity by half.

For `[Cl-].[Na+]` [Na^+], the IC50 in assay [1] (setting [3]) worked out at 10.9 ± 0.8 mM. In addition, the “effect of intraliposomal cations on [3H]Arg uptake” value (from here on “effect of intraliposomal cations”) in assay [1] (15 mM ATP, pH 7.5, 20 min) is “activation”. The “inhibition of [3H]Arg uptake by external monovalent cations” value in assay [1] (20 min, pH 7.5) was ~ 40%.
The corresponding values for `[K+]` [K^+] are 11.3 ± 1.2 mM, “activation” and ~ 40%.
With `CC(C)CCC[C@@H](C)[C@H]1CC[C@H]2[C@@H]3CC=C4C[C@@H](OC(=O)CCC(=O)O)CC[C@]4(C)[C@H]3CC[C@]12C` [CHS, Cholesteryl hemisuccinate, reference compound], the “stimulation of [3H]Arg uptake by CHS in the proteoliposomal membrane” value in assay [1] (1 mg of CHS in 1 mL proteoliposomes, corresponding to 10% of total lipid composition, 20 min, pH 7.5) is “up to 30%”.
Consider `[Ca+2].[Cl-].[Cl-]` [Ca^2+], for which the “effect of intraliposomal cations” value in assay [1] (15 mM ATP, pH 7.5, 20 min) is listed as “did not exert any significant effect”. Also, the “inhibition of [3H]Arg uptake by external divalent cations” value in assay [1] (20 min, pH 7.5) is “did not exert a significant effect”.
In the case of `[Cl-].[K+]` [KCl], in assay [1] (20 min, pH 7.5), the “effect of external K+ salts on [3H]Arg uptake” value is reported as “inhibited”.
For the compound `Nc1ncnc2c1ncn2[C@@H]1O[C@H](COP(=O)(O)OP(=O)([O-])OP(=O)([O-])O)[C@@H](O)[C@H]1O.[Na+].[Na+]` [ATP], in assay [1] (ATP (Na+)2 salt added externally, partially due to Na+ and osmolality, 200 mM sucrose and 15 mM ATP inside, pH 7.5, 20 min), the “effect of extraliposomal ATP on [3H]Arg uptake” value is “inhibited”.
For `O=C([O-])[C@H](O)[C@@H](O)[C@H](O)[C@H](O)CO.[K+]` [K-gluconate], the “effect of external K+ salts on [3H]Arg uptake” value in assay [1] (20 min, pH 7.5) is listed as “no difference between the two K^+ salts”.
Regarding `[Cl-].[Cl-].[Mg+2]` [Mg^2+], the “effect of external Mg2+ on [3H]Arg efflux” value in assay [2] is recorded as “no, or only a slight, effect”. Besides, in assay [1] (Mg2+ in internal compartment, 200 mM sucrose, no intraliposomal ATP, 20 min), the “inhibition of [3H]Arg uptake by intraliposomal Mg2+ in the absence of internal ATP” value is “virtually disappeared”. In addition, the IC50 was determined as 23 ± 9.9 mM in assay [1] (Mg2+ in internal compartment, with 200 mM sucrose and 15 mM intraliposomal ATP, pH 7.5, 20 min, read-out: IC50 for inhibition of [3H]Arg uptake by intraliposomal Mg2+); 0.42 ± 0.18 mM in assay [1] (setting [3]). Besides, the “effect of intraliposomal cations” value in assay [1] (15 mM ATP, pH 7.5, 20 min) was “strong inhibitory effect”. Further, in assay [1] (20 min, pH 7.5), the “inhibition of [3H]Arg uptake by external divalent cations” value was 33%.
Turning to `Cl.N` [NH4^+], the 50% inhibitory concentration (IC50) in assay [1] (setting [3]) was 5.7 ± 1.49 mM. Further, the “effect of intraliposomal cations” value in assay [1] (15 mM ATP, pH 7.5, 20 min) is listed as “did not exert any significant effect”. In addition, the “inhibition of [3H]Arg uptake by external monovalent cations” value in assay [1] (20 min, pH 7.5) is recorded as ~ 40%.
Regarding `OC[C@H]1O[C@@](CO)(O[C@H]2O[C@H](CO)[C@@H](O)[C@H](O)[C@H]2O)[C@@H](O)[C@@H]1O` [sucrose], in assay [1] (1.2 mM sucrose external, with respect to control without sucrose), the “effect of 1.2 mM external sucrose on transport activity” value is listed as “no difference of activity”. In assay [1] (40 mM sucrose external, with respect to the condition without sucrose), the “effect of 40 mM external sucrose on transport activity” value is recorded as “caused a reduction of transport activity”. Besides, the “[3H]Arg uptake as percent of the control with external sucrose” value in assay [1] (50 mM sucrose in external compartment, 200 mM sucrose and 15 mM ATP inside, pH 7.5, 10 min) was “about 45%”. In addition, in assay [1] (50 mM sucrose in external compartment, control without external sucrose 0.93 ± 0.2, 10 min, pH 7.5), the “transport rate of [3H]Arg uptake with external sucrose” value worked out at 0.51 ± 0.18 nmol/mg/min. For the same compound, the “change of [3H]Arg uptake with intraliposomal sucrose” value in assay [1] (intraliposomal osmolality 50 to 175 mOsmol, plateau up to 225 mOsmol, 15 mM ATP, pH 7.5, 10 min) is recorded as “increased approximately three times”.
